# Tested on: Rattus norvegicus
# Test: Toxicity in po dosed Rattus norvegicus (rat)
# Settings: in vivo
row,Structure (SMILES),pLD50
1,O=C(O)c1ccccc1 [BENZOIC ACID],7.44
2,CNc1ccccc1C(=O)OC [2-METHYLAMINOBENZOIC ACID METHYL ESTER],8.13
3,CC(C)OC(=O)c1ccccc1 [BENZOIC ACID 1-METHYLETHYL ESTER],8.22
4,CCOC(=O)c1ccccc1 [ETHYL BENZOATE],7.65
5,CC(C)=CCOC(=O)c1ccccc1 [BENZOIC ACID 3-METHYL-2-BUTENYL ESTER],8.46
6,O=C(O)c1ccccc1OP(=O)(O)O [FOSFOSAL],7.01
7,CC(C)CCOC(=O)c1ccccc1 [BENZOIC ACID 1-(3-METHYL)BUTYL ESTER],8.75
8,"O=C(O)c1cc([N+](=O)[O-])cc([N+](=O)[O-])c1O [3,5-DINITROSALICYLIC ACID]",6.76
9,CCOC(=O)c1ccc(OC)cc1 [4-METHOXYBENZOIC ACID ETHYL ESTER],7.62
10,Cc1ccc(OC(=O)c2ccccc2O)cc1,7.17
11,CCOC(=O)c1ccc(N)cc1 [BENZOCAINE],8.02
12,COC(=O)c1ccccc1OC [METHYL 2-METHOXYBENZOATE],8.241
13,COC(=O)c1ccccc1OC(N)=O [2-(AMINOCARBONYL)OXYBENZOIC ACID METHYL ESTER],7.82
14,O=C(O)Cc1ccccc1C(=O)O [2-CARBOXYBENZENEACETIC ACID],6.21
15,O=C(O)c1ccccc1/N=C/c1ccccc1 [N-BENZYLIDENEANTHRANILIC ACID],6.21
16,"COc1c(Cl)ccc(Cl)c1C(=O)O [3,6 DICHLOROMETHOXYBENZOIC ACID]",6.95
17,O=C(Cl)c1ccccc1 [BENZOYL CHLORIDE],7.55
18,"COc1cccc(OC)c1C(=O)O [2,6-DIMETHOXYBENZOIC ACID]",6.21
19,"Nc1c(Cl)cc(Cl)cc1C(=O)O [3,5-DICHLOROANTHRANILIC ACID]",8.32
20,C=COC(=O)c1ccccc1 [BENZOIC ACID VINYL ESTER],8.09
21,NC(=O)c1ccccc1O [SALICYLAMIDE],6.89
22,"O=C(O)c1c(Cl)ccc(Cl)c1Cl [2,3,6-TRICHLOROBENZOIC ACID]",6.48
23,CC(C)CCOC(=O)c1ccccc1O,8.1
24,O=C(OCc1ccccc1)c1ccccc1O [BENZYL SALICYLATE],7.71
25,O=C(O)c1ccccc1O [SALICYLIC ACID],6.791
26,O=C(O)c1cc(Cl)ccc1O [5-CHLOROSALICYLIC ACID],5.52
27,O=C(O)c1ccc(Cl)c([N+](=O)[O-])c1 [4-CHLORO-3-NITROBENZOIC ACID],8.06

row,Structure (SMILES),pLD50
1,CCOC(=O)c1ccc([N+](=O)[O-])cc1 [4-NITROBENZOIC ACID ETHYL ESTER],7.89
2,Nc1ccc(O)c(C(=O)O)c1 [MESALAMINE],7.94
3,CCOC(=O)c1ccccc1O [ETHYL SALICYLATE],7.191
4,O=C(O)c1ccc(O)cc1 [PARABEN],9.21
5,COC(=O)c1cccc(C)c1O,8.25
6,O=C(O)c1cc(S(=O)(=O)O)ccc1O [SULFOSALICYLIC],7.52
7,O=C(O)c1ccc([N+](=O)[O-])cc1 [4-NITROBENZOIC ACID],7.58
8,O=C(Oc1ccccc1)c1ccccc1O [PHENYL SALICYLATE],8.01
9,Cc1ccc(OC(=O)c2ccccc2)cc1 [BENZOIC ACID 4-METHYLPHENYL ESTER],7.88
10,CCCCCCOC(=O)c1ccccc1 [BENZOIC ACID HEXYL ESTER],9.42
11,CCCOC(=O)c1cc(O)c(O)c(O)c1 [PROPYL GALLATE],7.65
12,COC(=O)c1ccc(OC)cc1 [METHYL 4-METHOXYBENZOATE],8.52
13,"O=C(OCC1CO1)c1ccccc1 (centres undefined) [BENZOIC ACID 2,3-EPOXYPROPYL ESTER]",7.25
14,CC(C)COC(=O)c1ccccc1O,7.35
15,Nc1ccccc1C(=O)O [ANTHRANILIC ACID],8.6
16,O=C(Oc1cccc(O)c1)c1ccccc1 [BENZOIC ACID 3-HYDROXYPHENYL ESTER],6.68
17,CCCCOC(=O)c1ccccc1N [BUTYL 2-AMINOBENZOATE],8.52
18,CC(C)COC(=O)c1ccccc1 [BENZOIC ACID 2-METHYLPROPYL ESTER],8.63
19,Cc1cccc(C(=O)O)c1O [HYDROXYTOLUIC ACID],6.1
20,Nc1cc(Cl)cc(C(=O)O)c1Cl [CHLORAMBEN],8.16
21,O=C(O)c1ccccc1C(=O)c1ccccc1 [2-BENZOYLBENZOIC ACID],8.43
22,COC(=O)c1ccccc1O [METHYL SALICYLATE],6.79
23,O=C(O)c1c(Cl)ccc(Cl)c1O,7.35
24,COC(=O)c1cc([N+](=O)[O-])ccc1Cl,8.59
25,O=C(Cl)c1ccc([N+](=O)[O-])cc1 [4-NITROBENZOYL CHLORIDE],8.63
26,CC(=O)Oc1ccccc1C(=O)O [ASPIRIN],5.3
27,Nc1ccc(C(=O)O)cc1 [AMINOBENZOIC ACID],8.7

# Source: ChEMBL document CHEMBL3045261, “Study on the quantitative structuretoxicity relationships of benzoic acid derivatives in rats via oral LD50” (Med Chem Res, 2009)
